The record followed here is patent publication US11656221B2, “Methods to identify modulators of actin-binding proteins” (Regents of the University of Minnesota, priority 2019, dated 2023).

Entries after “also recorded” stand apart in the source; their conditions may differ.

In series [1] the target is T1, ternary complex consisting of GFP-ABD-L253P, Lifeact-mCherry, and actin (Homo sapiens, UniProt O15020, L253P).
T1 construct: L252P β-III-spectrin (human) ABD residues 1-284; expressed in transfected cells; host or cells: HEK293-6E, pTT5 vector, transient
T1 sequence (O15020 1-284 L253P, one chain of several): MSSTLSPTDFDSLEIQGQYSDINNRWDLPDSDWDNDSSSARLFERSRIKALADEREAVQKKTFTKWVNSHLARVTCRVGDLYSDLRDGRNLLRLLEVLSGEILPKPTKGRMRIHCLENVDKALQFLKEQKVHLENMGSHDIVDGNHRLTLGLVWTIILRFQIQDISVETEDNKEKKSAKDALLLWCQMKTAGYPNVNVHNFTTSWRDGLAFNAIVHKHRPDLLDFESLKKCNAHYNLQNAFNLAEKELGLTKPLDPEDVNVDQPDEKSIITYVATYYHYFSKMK
The experiment in a line: Primary live-cell time-resolved FRET assay (GFP-ABD-L253P plus Lifeact-mCherry). The conditions noted are these: for effect on FRET in primary screen (Hit, 4SD threshold): LOPAC compounds 10 μM, 120 min. Type of series: cell-based.

For series [2], the target named is T2, GFP-ABD-L253P and mCherry (non-specific FRET) in HEK293-6E cells (Homo sapiens, UniProt O15020, L253P).
T2 construct: L252P β-III-spectrin (human) ABD residues 1-284; expressed in transfected cells; host or cells: HEK293-6E, pTT5 vector, transient
T2 sequence (O15020 1-284 L253P): as the sequence (O15020 1-284 L253P, one chain of several) above
The series is described as follows: Counter FRET assay, non-specific FRET (GFP-ABD-L253P plus mCherry). Type of series: cell-based. The note with it: 0.1% Triton X-100, cell lysis. The protocol:
At 2×10^6 cells/mL, HEK293-6E cells were transfected with GFP-ABD (2.4 μg), Lifeact-mCherry (2.4-16.8 μg), mCherry (1.2-16.8 μg), and/or pTT5 (0.8-17.6 μg) using the 293fectin protocol (Thermo Fisher Scientific) with 20 μg total DNA. The cells were harvested 24 hours later by centrifugation at 100×g for 5 min, and then washed twice with PBS. Cell viability and concentration were determined using trypan blue assay and a Countess cell counter (Invitrogen).
Using a Multidrop Combi liquid dispenser (Thermo Fisher Scientific), 10^6 cells/mL were dispersed into 1536-well and 384-well plates as 5 or 50 μL aliquots, respectively. For control and tool compound plates, 100 nL of DMSO or potential tool compound was loaded using the Mantis (Formulatrix). […] Two to three hours after sample loading, fluorescence lifetime measurements were performed using high-throughput fluorescence plate-readers provided by Photonic Pharma LLC (MN, USA), including one detecting fluorescence lifetime and another detecting fluorescence spectra, as described previously.
To develop a biosensor that monitors the binding of mutant L253P β-III-spectrin to actin filaments in live cells, a fluorescence resonance energy transfer (FRET) approach was tested. […] To measure the non-specific component to our FRET readout, we concurrently tested expression of mCherry in place of Lifeact-mCherry. […]

Series [3] has as its target T3, ABD-L253P (L253P β-III-spectrin ABD) binding to F-actin (Homo sapiens, UniProt O15020, L253P).
T3 construct: His-SUMO (cleaved yes); made in house; host or cells: E. coli BL21(DE3), pE-SUMOpro; actin from rabbit psoas muscle
The series is described as follows: F-actin and ABD co-sedimentation assay. The note with it: 50 μM, 1 μM ABD, 1 μM F-actin. As to the method: (§1) Actin was purified from acetone powder derived from the psoas muscle of New Zealand white rabbit (Oryctolagus cuniculus). Filamentous (F)-actin was stored for up to 3 days on ice before use in binding assays. Within an hour of the binding assay, the F-actin was clarified at 100,000×g at 4° C. for 10 min prior to setting up binding assays. The L253P β-III-spectrin ABD was expressed in E. coli BL21(DE3) (Novagen). The ABD was purified and the His-SUMO tag proteolytically removed, as previously described, except size-exclusion chromatography was not performed due to the high purity of the ABD protein. Lifeact-mCherry protein was similarly prepared. A Bradford assay was performed to determine clarified F-actin and ABD protein concentrations.
F-actin and ABD binding assays were performed as previously described. In brief, binding assays used 1 μM ABD protein, 1 μM F-actin and 1-50 μM compound (as indicated) or DMSO control for a total reaction volume of 60 μL in F-buffer containing 10 mM Tris, pH 7.5, 150 mM NaCl, 0.5 mM ATP, 2 mM MgCl2, and 1 mM DTT. Following 30 min incubation at room temperature (21° C.). F-actin was pelleted using centrifugation at 100,000×g at 25° C. for 30 min. Unbound ABD in the supernatant was measured following SDS-PAGE and Coomassie blue staining in accord. In addition, control co-sedimentations assays that lacked actin were performed to test if compounds cause ABD aggregation. […] Amount of mCherry was determined by acquiring fluorescence spectrum peak intensity at ˜600 nm using a spectral unmixing plate reader (Fluorescence Innovations, Inc) equipped with a 532 nm laser (Laserglow Technologies, Ontario, Canada) for excitation, 532 nm longpass filter for emission, and PMT for emission detection. The fraction of Lifeact-mCherry bound to F-actin was determined by subtracting from one the fraction of supernatant fluorescence intensity relative to the no-actin control sample, using the following equation: […]

Series [4] concerns the target T4, Lifeact-mCherry binding to F-actin (Oryctolagus cuniculus, UniProt P68135).
T4 construct: Actin was purified from acetone powder derived from the psoas muscle; made in house; host or cells: actin from rabbit psoas muscle; Lifeact-mCherry from E. coli, pE-SUMOpro
The series is described as follows: F-actin and Lifeact-mCherry co-sedimentation assay. The arrangement: species or system New Zealand white rabbit (Oryctolagus cuniculus). As to the method: as §1
(§2) F-actin and ABD binding assays were performed as previously described. In brief, binding assays used 1 μM ABD protein, 1 μM F-actin and 1-50 μM compound (as indicated) or DMSO control for a total reaction volume of 60 μL in F-buffer containing 10 mM Tris, pH 7.5, 150 mM NaCl, 0.5 mM ATP, 2 mM MgCl2, and 1 mM DTT. Following 30 min incubation at room temperature (21° C.). F-actin was pelleted using centrifugation at 100,000×g at 25° C. for 30 min. Unbound ABD in the supernatant was measured following SDS-PAGE and Coomassie blue staining in accord. In addition, control co-sedimentations assays that lacked actin were performed to test if compounds cause ABD aggregation. F-actin and Lifeact-mCherry binding assays were undertaken with 2 μM Lifeact-mCherry, 30 μM F-actin and 1-50 μM compound (as indicated) or DMSO control for a total reaction volume of 80 μL in F-buffer. For a no-actin binding control, an assay sample with no F-actin was also set up. Binding reactions were allowed to reach equilibrium at room temperature (21° C.) for 30 min and then F-actin was pelleted by centrifugation at 100,000×g at 25° C. for 30 min. The amount of unbound Lifeact-mCherry was sampled by loading 7 μL of spin supernatant on a low volume black bottom 384-well plate (Greiner). Amount of mCherry was determined by acquiring fluorescence spectrum peak intensity at ˜600 nm using a spectral unmixing plate reader (Fluorescence Innovations, Inc) equipped with a 532 nm laser (Laserglow Technologies, Ontario, Canada) for excitation, 532 nm longpass filter for emission, and PMT for emission detection. The fraction of Lifeact-mCherry bound to F-actin was determined by subtracting from one the fraction of supernatant fluorescence intensity relative to the no-actin control sample, using the following equation:
[formula] • Where Fcontrol/DMSO is the peak mCherry fluorescence of assay samples containing compound or DMSO control, and Fno-actin is the peak mCherry fluorescence of assay samples that contained no F-actin. 2.9 Trypan Blue Cell Viability Assays

The test system of a further series is HEK293-6E cells. The series is described as follows: Trypan blue cell viability assay. The format is cell-based. As to the method: HEK293-6E cell viability was measured using trypan blue (0.03%) staining and a Countess Automated Cell counter (Invitrogen). Non-transfected HEK293-6E cells were spun at 100×g for 5 min at 21° C., and resuspended in 10 mL of PBS. The centrifugation and resuspension were repeated twice more. Final cell concentration was 1×10^6 cells/mL. Cells were incubated with 2% DMSO, or 3-50 μM compound (as indicated) for 3 hrs at room temperature (21° C.). After addition of 100 μL of 0.06% trypan blue solution in PBS, 10 μL was loaded on a slide and injected into the cell counter, and cell viability was measured.

A further series deals with T5, ABD-L253P (Homo sapiens, UniProt O15020, L253P).
T5 construct: His-SUMO (cleaved yes); made in house; host or cells: E. coli BL21(DE3), pE-SUMOpro
T5 sequence (O15020 1-284 L253P): as the sequence (O15020 1-284 L253P, one chain of several) above
The series is described as follows: Sedimentation of ABD L253P without actin (aggregation). The note with it: 10 μM. As to the method:
as §2, with “equation: […]” for “equation:”
In addition to a reduction in cell viability, the primary and counter screen may be sensitive to compounds that promote ABD-L253P protein aggregation. […] Our ABD-L253P to actin co-sedimentation assay is unlikely to be sensitive to ABD aggregation, as it is set up to monitor maximal sedimentation of ABD-L253P with actin at ˜90% ABD-L253P co-sedimenting. To directly measure the impact of 10 μM Hit compounds on ABD aggregation, we repeated the ABD-actin co-sedimentation without actin present.

T3 sequence (O15020 1-284 L253P): as the sequence (O15020 1-284 L253P, one chain of several) above

For Triton X-100, in series [1] (0.1% Triton X-100, cell lysis), the “effect on total FRET” value is listed as “abolished”. In series [2], the “effect on non-specific FRET” value is recorded as “abolished”.

On to `[H]/N=C(/NCCCCC)N/N=C/c1c[nH]c2ccc(OC)cc12` [tegaserod], for which the “reduction of total FRET” value in series [1] (50 μM, HEK293-6E cells, relative to DMSO) is recorded as 83%. The “effect on ABD-L253P binding to actin” value in series [3] was “did not alter; also recorded: no significant effect”. Besides, the “effect on Lifeact-mCherry binding with actin” value (from here on “effect … with actin”) in series [4] (50 μM) was “did not alter and not”. Besides, in the series on HEK293-6E cells (50 μM, 3 hrs), the “decrease in cell viability” value worked out at 92% and the “effect on HEK293-6E cell viability” value was “greatly diminished cell viability; also recorded: abolishes HEK293-6E cell viability”.

Regarding `CCCc1c(-c2ccc(O)cc2)nn(-c2ccc(O)cc2)c1-c1ccc(O)cc1` [PPT], in series [1], the “effect on FRET in primary screen (Hit, 4SD threshold)” value (from here on “effect on FRET in primary screen”) is on record as “decrease FRET”. In addition, on ABD-L253P, the “ABD L253P aggregation (pelleting without actin)” value is recorded as “increases ABD pelleting; also recorded: promote aggregation”.

For `CCCCCCCC/C=C\CCCCCCCC(=O)NCc1ccc(O)c(OC)c1` [olvanil], the “effect on FRET in primary screen” value in series [1] is reported as “decrease FRET”. In addition, the “ABD L253P aggregation (pelleting without actin)” value on ABD-L253P is on record as “increases ABD pelleting; also recorded: promote aggregation”.

For the molecule `O=C(O)c1cc([N+](=O)[O-])ccc1NCCCc1ccccc1` [NPPB], in series [1], the “effect on FRET in primary screen” value is recorded as “decrease FRET”. Further, the “effect … with actin” value in series [4] (10 μM) is listed as “decreased actin-Lifeact co-sedimentation; also recorded: reduce Lifeact-mCherry binding with actin”. The entries for the “ABD L253P aggregation (pelleting without actin)” value at ABD-L253P and at ABD-L253P (listed as NBBP) were “promote aggregation” and “increases ABD pelleting”, respectively.

Turning to `CC(C)(C)c1ccc(/C=C/C(=O)Nc2ccc3c(c2)OCCO3)cc1` [AMG 9810], in series [1], the “effect on FRET in primary screen” value is listed as “decrease FRET”. Moreover, the “ABD L253P aggregation (pelleting without actin)” value on ABD-L253P is “increases ABD pelleting; also recorded: promote aggregation”.

For `CC(C)(Sc1ccc(CCN(CCCCC2CCCCC2)C(=O)NC2CCCCC2)cc1)C(=O)O` [GW7647], in series [1], the “effect on FRET in primary screen” value is “decrease FRET”. Also, in series [4] (10 μM), the “effect … with actin” value is “decreased actin-Lifeact co-sedimentation; also recorded: reduce Lifeact-mCherry binding with actin”. In addition, the “effect on HEK293-6E cell viability” value in the series with HEK293-6E cells (10 μM, 3 hr incubation) is reported as “dramatically reduced cell viability; also recorded: reduces HEK293-6E cell viability”. For the same molecule, at ABD-L253P, the “ABD L253P aggregation (pelleting without actin)” value is “increases ABD pelleting; also recorded: promote aggregation”.
